The structures appear in SMILES notation.

In the first experiment the target is BTK (Homo sapiens (Human), UniProt Q06187). The experiment is described as follows: Btk in vitro inhibitory activity (one of Method A TR-FRET, Method B electrophoretic mobility shift, Method C radiometric filter binding). The format is biochemical. Conditions: determined using one of the methods of Example 355a, 355b and 355c; read-out: BTK IC50. In general terms: In EMSA bound probe runs differently from free probe, usually more slowly.
Sequence of BTK (Q06187 whole entry): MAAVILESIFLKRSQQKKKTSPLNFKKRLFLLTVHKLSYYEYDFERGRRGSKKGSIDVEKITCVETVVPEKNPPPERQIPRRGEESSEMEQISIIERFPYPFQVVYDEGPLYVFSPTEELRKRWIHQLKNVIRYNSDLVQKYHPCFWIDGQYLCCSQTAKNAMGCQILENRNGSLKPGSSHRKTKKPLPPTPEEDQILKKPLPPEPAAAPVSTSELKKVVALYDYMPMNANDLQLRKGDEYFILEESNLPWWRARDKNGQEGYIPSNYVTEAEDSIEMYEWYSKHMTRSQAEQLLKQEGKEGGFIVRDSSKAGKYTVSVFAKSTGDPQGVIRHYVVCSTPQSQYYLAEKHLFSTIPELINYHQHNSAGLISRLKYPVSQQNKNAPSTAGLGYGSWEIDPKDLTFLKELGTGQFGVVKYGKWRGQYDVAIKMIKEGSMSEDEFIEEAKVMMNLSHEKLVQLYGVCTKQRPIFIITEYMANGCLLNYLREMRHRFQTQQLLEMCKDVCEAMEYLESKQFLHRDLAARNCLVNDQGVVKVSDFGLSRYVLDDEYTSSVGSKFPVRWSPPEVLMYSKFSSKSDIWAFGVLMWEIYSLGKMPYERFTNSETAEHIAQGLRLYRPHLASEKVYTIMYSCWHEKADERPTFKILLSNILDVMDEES
As usually defined, the IC50 is the concentration needed to halve the response being measured. In the case of `NC(=O)c1nnc(N2CCC[C@@H](NC(=O)C3CC3)C2)nc1Nc1ccc(C(=O)N2CCOCC2)cc1` [Example 25, (R)-3-(3-(cyclopropanecarboxamido)piperidin-1-yl)-5-(4-(morpholine-4-carbonyl)phenylamino)-1,2,4-triazine-6-carboxamide], the half-inhibitory concentration (IC50) lay in the range of 10 to 100 nM.
For the compound `Cc1cc(Nc2nc(N[C@@H]3CCCCN(C(=O)N(C)C)C3)cnc2C(N)=O)sn1` [Example 348, (R)-3-(5-carbamoyl-6-(3-methylisothiazol-5-ylamino)pyrazin-2-ylamino)-N,N-dimethylazepane-1-carboxamide], the 50% inhibitory concentration (IC50) lay in the range of 10 to 100 nM.
On the same count and under the same terms, next, `CC#CC(=O)N1CCC[C@@H](N(C)c2cnc(C(N)=O)c(Nc3ccc(C(=O)N4CCOCC4)cc3)n2)C1` [Example 157, (R)-5-((1-but-2-ynoylpiperidin-3-yl)(methyl)amino)-3-(4-(morpholine-4-carbonyl)phenylamino)pyrazine-2-carboxamide]: below 10 nM.
On the same count and under the same terms, under `NC(=O)c1nnc(N[C@@H]2CCCNC2)nc1Nc1ccc(C(=O)N2CCOCC2)cc1` [Example 61, (R)-5-(4-(morpholine-4-carbonyl)phenylamino)-3-(piperidin-3-ylamino)-1,2,4-triazine-6-carboxamide] stands 1000 to 10000 nM; under `CCCn1nnc2cc(C(=O)N[C@@H]3CCCN(c4nnc(C(N)=O)c(Nc5ccc(C(=O)N6CCOCC6)cc5)n4)C3)ccc21` [Example 103, (R)—N-(1-(6-carbamoyl-5-(4-(morpholine-4-carbonyl)phenylamino)-1,2,4-triazin-3-yl)piperidin-3-yl)-1-propyl-1H-benzo[d][1,2,3]triazole-5-carboxamide], below 10 nM; under `NC(=O)c1nnc(N2CCC[C@@H](n3ccc4cc(C5CC5)cc(F)c4c3=O)C2)nc1Nc1ccc(C(=O)N2CCOCC2)cc1` [Example 47, (R)-3-(3-(6-cyclopropyl-8-fluoro-1-oxoisoquinolin-2(1H)-yl)piperidin-1-yl)-5-(4-(morpholine-4-carbonyl)phenylamino)-1,2,4-triazine-6-carboxamide], below 10 nM.
The same measure, in the same setting: next, `Cc1ccc(Nc2nc(N3CCC[C@@H](NC(=O)c4ccc(C(C)(C)C)cc4)C3)nnc2C(N)=O)cc1` [Example 53, (R)-3-(3-(4-tert-butylbenzamido)piperidin-1-yl)-5-(p-tolylamino)-1,2,4-triazine-6-carboxamide]: 1000 to 10000 nM; `COc1ccc(C(=O)N[C@@H]2CCCN(c3cnc(C(N)=O)c(Nc4ccc(S(C)(=O)=O)cc4)n3)C2)cc1` [Example 117, (R)-5-(3-(4-methoxybenzamido)piperidin-1-yl)-3-(4-(methylsulfonyl)phenylamino)pyrazine-2-carboxamide]: below 10 nM.
Take `COCCOc1ccc(Nc2nc(N3CCC[C@@H](NC(=O)N[C@@H](C)c4ccccc4)C3)cnc2C(N)=O)cc1` [Example 346, 3-(4-(2-methoxyethoxy)phenylamino)-5-((R)-3-(3-((S)-1-phenylethyl)ureido)piperidin-1-yl)pyrazine-2-carboxamide]: the IC50 lay within 10 to 100 nM.
On the same count and under the same terms, under `CC(C)Oc1ccc(Nc2nc(N3CCC[C@@H](NC(=O)N(C)C)[C@H]3C)cnc2C(N)=O)cc1` [Example 243, 5-((2R,3R)-3-(3,3-dimethylureido)-2-methylpiperidin-1-yl)-3-(4-isopropoxyphenylamino)pyrazine-2-carboxamide] stands below 10 nM.

Staying with this experiment, now noted: read-out: Btk (IC50).
On to `CC#CC(=O)N1CCC[C@@H](N(C)c2cnc(C(N)=O)c(Nc3ccc(C(=O)N4CCOCC4)cc3)n2)C1` [Example 157, (R)-5-((1-but-2-ynoylpiperidin-3-yl)(methyl)amino)-3-(4-(morpholine-4-carbonyl)phenylamino)pyrazine-2-carboxamide], for which the IC50 is below 10 nM.
The same measure, in the same setting: next, `CC1(c2ccc(Nc3nc(N4CCC[C@@H](N5CCN(C6CC6)C5=O)C4)cnc3C(N)=O)cc2)CCN(C2CC2)CC1` [Example 279, (R)-5-(3-(3-cyclopropyl-2-oxoimidazolidin-1-yl)piperidin-1-yl)-3-(4-(1-cyclopropyl-4-methylpiperidin-4-yl)phenylamino)pyrazine-2-carboxamide]: below 10 nM.
For the compound `CCCn1nnc2cc(C(=O)N[C@@H]3CCCN(c4nnc(C(N)=O)c(Nc5ccc(C(=O)N6CCOCC6)cc5)n4)C3)ccc21` [Example 103, (R)—N-(1-(6-carbamoyl-5-(4-(morpholine-4-carbonyl)phenylamino)-1,2,4-triazin-3-yl)piperidin-3-yl)-1-propyl-1H-benzo[d][1,2,3]triazole-5-carboxamide], the IC50 is 10 to 100 nM.

The record behind these values is patent US9656988B2 (Pharmacyclics LLC, priority 2013, dated 2017).
